Laboratory results published in ChEMBL document CHEMBL1201862, “PubChem BioAssay data set” (2004).
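Following 48 hours of exposure in 96-well plates, responses at five concentrations were used to interpolate endpoints linearly. GI50 marks 50% less growth.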 Calls of active or inactive are those of the source. No stated cut-off is given here; in the data, active = GI50 up to about 1.1 µM and inactive = higher.

What was measured:
Test in all cases: growth of human tumour cells (NCI), 48 h
HCC 2998 = test system: HCC 2998
NCI-H23 = test system: NCI-H23
HCT-15 = test system: HCT-15
SR = test system: SR
OVCAR-3 = test system: OVCAR-3
CCRF-CEM = test system: CCRF-CEM
SF-295 = test system: SF-295
MOLT-4 = test system: MOLT-4
K562 = test system: K562
RPMI-8226 = test system: RPMI-8226
OVCAR-5 = test system: OVCAR-5
CAKI-1 = test system: CAKI-1
MCF7 = test system: MCF7
SW-620 = test system: SW-620
SK-MEL-2 = test system: SK-MEL-2
OVCAR-4 = test system: OVCAR-4
ACHN = test system: ACHN
RXF 393 = test system: RXF 393
IGROV-1 = test system: IGROV-1
OVCAR-8 = test system: OVCAR-8

N=C(N)NCCCC(NC(=O)OCCCCn1ccc(N)nc1=O)C(=O)O (centres undefined)
GI50 (HCC 2998): > 100 µM (inactive) | GI50 (NCI-H23): > 100 µM (inactive) | GI50 (HCT-15): > 100 µM | GI50 (SR): > 100 µM (inactive) | GI50 (OVCAR-3): > 100 µM (inactive) | GI50 (CCRF-CEM): > 100 µM (inactive) | GI50 (SF-295): > 100 µM (inactive) | GI50 (MOLT-4): > 100 µM (inactive) | GI50 (K562): > 100 µM (inactive) | GI50 (RPMI-8226): > 100 µM (inactive) | GI50 (OVCAR-5): > 100 µM (inactive) | GI50 (CAKI-1): > 100 µM (inactive) | GI50 (MCF7): > 100 µM (inactive) | GI50 (SW-620): > 100 µM (inactive) | GI50 (SK-MEL-2): > 100 µM (inactive) | GI50 (OVCAR-4): > 100 µM (inactive) | GI50 (ACHN): > 100 µM (inactive) | GI50 (RXF 393): > 100 µM (inactive) | GI50 (IGROV-1): > 100 µM (inactive)

CCOP(=O)(OCC)/C(F)=C/c1ccc(F)cc1
GI50 (HCC 2998): > 10 µM (inactive) | GI50 (NCI-H23): > 100 µM (inactive) | GI50 (HCT-15): > 100 µM | GI50 (SR): > 100 µM (inactive) | GI50 (OVCAR-3): > 100 µM (inactive) | GI50 (CCRF-CEM): > 100 µM (inactive) | GI50 (SF-295): > 100 µM (inactive) | GI50 (MOLT-4): > 100 µM (inactive) | GI50 (K562): > 100 µM (inactive) | GI50 (RPMI-8226): > 100 µM (inactive) | GI50 (OVCAR-8): > 100 µM (inactive) | GI50 (OVCAR-5): > 100 µM (inactive) | GI50 (CAKI-1): > 100 µM (inactive) | GI50 (MCF7): > 100 µM (inactive) | GI50 (SW-620): > 100 µM (inactive) | GI50 (SK-MEL-2): > 100 µM (inactive) | GI50 (OVCAR-4): > 100 µM (inactive) | GI50 (ACHN): > 100 µM (inactive) | GI50 (RXF 393): > 100 µM (inactive) | GI50 (IGROV-1): > 100 µM (inactive)

Cc1ccc(O)c(C(c2cc(C)ccc2O)c2cc([N+](=O)[O-])ccc2O)c1
GI50 (HCC 2998): 12.4 µM (inactive) | GI50 (NCI-H23): 12.4 µM (inactive) | GI50 (HCT-15): 16.3 µM | GI50 (SR): 8.43 µM (inactive) | GI50 (OVCAR-3): 12.4 µM (inactive) | GI50 (CCRF-CEM): 13.6 µM (inactive) | GI50 (SF-295): 16.7 µM (inactive) | GI50 (MOLT-4): 6.12 µM (inactive) | GI50 (K562): 23.1 µM (inactive) | GI50 (RPMI-8226): 13.7 µM (inactive) | GI50 (OVCAR-8): 3.66 µM (inactive) | GI50 (OVCAR-5): 14.3 µM (inactive) | GI50 (CAKI-1): 12.2 µM (inactive) | GI50 (MCF7): 14.5 µM (inactive) | GI50 (SW-620): 24.3 µM (inactive) | GI50 (SK-MEL-2): 13.7 µM (inactive) | GI50 (OVCAR-4): 11.8 µM (inactive) | GI50 (ACHN): 13.2 µM (inactive) | GI50 (RXF 393): 17.8 µM (inactive) | GI50 (IGROV-1): 10.3 µM (inactive)

CCOC(=O)C(CC#Cc1ccc(C#CCC(NC(C)=O)C(=O)OCC)cc1)NC(C)=O (centres undefined)
GI50 (HCC 2998): > 100 µM (inactive) | GI50 (NCI-H23): > 100 µM (inactive) | GI50 (HCT-15): > 100 µM | GI50 (SR): > 100 µM (inactive) | GI50 (OVCAR-3): > 100 µM (inactive) | GI50 (CCRF-CEM): > 100 µM (inactive) | GI50 (SF-295): > 100 µM (inactive) | GI50 (MOLT-4): > 100 µM (inactive) | GI50 (K562): > 100 µM (inactive) | GI50 (RPMI-8226): > 100 µM (inactive) | GI50 (OVCAR-8): > 100 µM (inactive) | GI50 (OVCAR-5): > 100 µM (inactive) | GI50 (CAKI-1): > 100 µM (inactive) | GI50 (MCF7): > 100 µM (inactive) | GI50 (SW-620): > 100 µM (inactive) | GI50 (SK-MEL-2): > 100 µM (inactive) | GI50 (OVCAR-4): > 100 µM (inactive) | GI50 (ACHN): > 100 µM (inactive) | GI50 (RXF 393): > 100 µM (inactive) | GI50 (IGROV-1): > 100 µM (inactive)

COc1ccc2[nH]c3c(C)c4ccnc(NCCCN(C)CCCN)c4c(C)c3c2c1
GI50 (HCC 2998): 0.159 µM (active) | GI50 (NCI-H23): 0.202 µM (active) | GI50 (HCT-15): 0.258 µM | GI50 (SR): 0.186 µM (active) | GI50 (OVCAR-3): 0.469 µM (active) | GI50 (CCRF-CEM): 0.0726 µM (active) | GI50 (SF-295): 0.214 µM (active) | GI50 (MOLT-4): 0.111 µM (active) | GI50 (K562): 0.118 µM (active) | GI50 (RPMI-8226): 0.281 µM (active) | GI50 (OVCAR-8): 0.162 µM (active) | GI50 (OVCAR-5): 0.176 µM (active) | GI50 (CAKI-1): 0.156 µM (active) | GI50 (MCF7): 0.0263 µM (active) | GI50 (SW-620): 0.102 µM (active) | GI50 (SK-MEL-2): 0.336 µM (active) | GI50 (OVCAR-4): 0.0809 µM (active) | GI50 (ACHN): 0.119 µM (active) | GI50 (RXF 393): 0.0622 µM (active) | GI50 (IGROV-1): 0.165 µM (active)

N#Cc1c(-c2ccc(Cl)cc2)cc(-c2ccc(Nc3ccnc4cc(Cl)ccc34)cc2)[nH]c1=O
GI50 (HCC 2998): > 100 µM (inactive) | GI50 (NCI-H23): 24.7 µM (inactive) | GI50 (HCT-15): > 100 µM | GI50 (SR): > 52.5 µM (inactive) | GI50 (OVCAR-3): > 100 µM (inactive) | GI50 (CCRF-CEM): 16 µM (inactive) | GI50 (SF-295): 16.6 µM (inactive) | GI50 (MOLT-4): > 58.6 µM (inactive) | GI50 (K562): > 54.5 µM (inactive) | GI50 (RPMI-8226): > 62.5 µM (inactive) | GI50 (OVCAR-8): > 100 µM (inactive) | GI50 (OVCAR-5): > 61.7 µM (inactive) | GI50 (CAKI-1): > 100 µM (inactive) | GI50 (MCF7): > 100 µM (inactive) | GI50 (SW-620): > 100 µM (inactive) | GI50 (SK-MEL-2): 31.4 µM (inactive) | GI50 (OVCAR-4): > 100 µM (inactive) | GI50 (ACHN): 32 µM (inactive) | GI50 (RXF 393): 30.4 µM (inactive) | GI50 (IGROV-1): > 100 µM (inactive)

CCOP1(=O)C=C(Sc2ccc([N+](=O)[O-])cc2[N+](=O)[O-])C(C)(C)O1 (centres undefined)
GI50 (HCC 2998): 18.6 µM (inactive) | GI50 (NCI-H23): 18.3 µM (inactive) | GI50 (HCT-15): 14.7 µM | GI50 (SR): 3.59 µM (inactive) | GI50 (OVCAR-3): 11.6 µM (inactive) | GI50 (CCRF-CEM): 2.42 µM (inactive) | GI50 (SF-295): 17.9 µM (inactive) | GI50 (MOLT-4): 4.13 µM (inactive) | GI50 (K562): 2.52 µM (inactive) | GI50 (RPMI-8226): 5.25 µM (inactive) | GI50 (OVCAR-8): 16.7 µM (inactive) | GI50 (OVCAR-5): 21.2 µM (inactive) | GI50 (CAKI-1): 11.7 µM (inactive) | GI50 (MCF7): 3.99 µM (inactive) | GI50 (SW-620): 11.6 µM (inactive) | GI50 (SK-MEL-2): 11.3 µM (inactive) | GI50 (OVCAR-4): 13.5 µM (inactive) | GI50 (ACHN): 14.5 µM (inactive) | GI50 (RXF 393): 17.9 µM (inactive) | GI50 (IGROV-1): 16.5 µM (inactive)
